In patent US20230193199A1, “Methods for Printing Functional Human Neural Tissue” (Wisconsin Alumni Research Foundation, priority 2021, published 2023):

Tests used:
glutamate receptor = assay: whole-cell patch-clamp recording of sEPSCs; type: cell-based, human; conditions: holding potential −70 mV; CNQX 10 μM applied with D-APV 50
Procedure: Whole-cell patch-clamp recordings were made from human PSC-derived cortical glutamatergic and GABAergic neurons. The bath solution consisted of 135 mM NaCl, 3 mM KCl, 2 mM CaCl2, 1 mM MgCl2, 10 mM HEPES, 11 mM glucose, 10 mM sucrose, pH 7.4. Recording pipettes were filled with an intracellular solution containing 120 mM potassium D-gluconate, 1 mM ethylene glycol-bis (β-aminoethyl ether) N,N,N′,N′-tetraacetic acid (EGTA), 10 mM 4-(2-hydroxyethyl)piperazine-1-ethanesulfonic acid (HEPES), 4 mM ATP-Mg, 0.3 mM GTP-Na, 10 mM phosphocreatine, 0.1 mM CaCl2, 1 mM MgCl2, pH 7.2, 280-290 mOsm/L. Briefly, the neurons were held at −70 mV to record the Na+/K+ channel activities with voltage-clamp model. […] Spontaneous excitatory postsynaptic currents (sEPSCs) and spontaneous inhibitory currents (sIPSCs) were recorded in gap-free mode at a holding potential of −70 mV and 0 mV, respectively. sEPSCs were blocked by application of the glutamate receptor antagonist 6-Cyano-7-nitroquinoxaline-2,3-dione (CNQX, 10 μM) and D-(−)-2-amino-5-phosphonopentanoic acid (D-APV, 50 sIPSCs were blocked by application of the GABAA receptor antagonist bicuculline (10 An Olympus BX51WI microscope was used to visualize neurons. A MultiClamp 700B amplifier (Axon instruments, Molecular Devices, Sunnyvale, Calif., USA) was used to investigate the voltage clamp and current clamp recordings. […]

[1] = tested on: hPSC-derived cortical neural progenitor cells (NPCs); assay: Live/Dead assay of hPSC-NPCs cultured in fibrin gel; type: cell-based, human
Procedure: For cell culturing in the fibrin gel, dissociated hPSC-NPCs at a density of 1×10^6 were mixed with fibrinogen at the following concentrations (1, 2.5, 5, 10 and 20 mg/mL) as show in FIG. 5. 0.5 mg/mL aprotinin was added for preventing gel degradation. 1 μL of the fibrinogen-laden cells were dropped on the poly-O coated plates at RT (room temperature). 1 different concentrations of thrombin (0.5, 1, 2.5, 5 and 10 U) solution with 2.5 mM CaCl2 were then added and mixed with the cells-fibrinogen solution. Fresh medium was added after gelation. Cells were encapsulated in the fibrin gel constructs and cultured at 37° C. incubator for characterization. […] The cells, however, tended to aggregate at higher fibrinogen levels. Thus, 2.5 or 5 mg/mL fibrinogen with 0.5 or 1 U thrombin was used for identifying an optimal gelation time.
The cell viability was measured by Live/Dead assay. Briefly, Live/Dead® staining kit (Molecular Probes) was used to assess cell viability. Immediately after harvesting, the cells were incubated in DMEM/F12 containing 1 μM calcein AM and 2 μM ethidium homodimer I for 30 min. […] The number of live (green) and dead (red) cells were counted in each field using Cell Counter in Image-J. The live/dead cell numbers from the five images of one sample were averaged to give each data point and five samples were used to determine the viability.

Compound	spontaneous excitatory postsynaptic currents (sEPSCs) (glutamate receptor)	other results
N#Cc1cc2c(cc1[N+](=O)[O-])=NC(=O)C(=O)N=2 [CNQX, 6-Cyano-7-nitroquinoxaline-2,3-dione]	blocked	
fibrinogen		cell viability (percent of live cells to total cells) ([1]; increasing fibrinogen concentrations at fixed low thrombin (0.5 U)): not influenced
thrombin		cell viability (percent of live cells to total cells) ([1]; increasing thrombin concentrations at fixed fibrinogen 2.5 mg/ml): decreased with increasing thrombin concentrations
N[C@H](CCCP(=O)(O)O)C(=O)O [D-APV, D-(−)-2-amino-5-phosphonopentanoic acid]	blocked	
